In the METLIN SMRT retention time set (Domingo-Almenara et al. 2019):

Test: gradient 5% acetonitrile 3 min, to 50% in 2 min, to 85% in 15 min, held 3 min, 100 µL/min
Conditions: column: Zorbax Extend-C18 2.1 x 50 mm; eluents: water / acetonitrile, 0.1% formic acid
In short: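 Standards, all pure, were combined into mixtures of ~100 molecules and run at 100 μL/min on a Zorbax Extend-C18 column (2.1 × 50 mm, 1.8 μm) with water and acetonitrile, each containing 0.1% formic acid. A coupled quadrupole time-of-flight mass spectrometer operated in positive and negative ionization mode. Retention time values come from computationally picked adduct peaks, each inspected manually.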

| SMILES | RP-LC retention time [s] |
| --- | --- |
| Cc1ccc(C(=O)c2cnc3cc4c(cc3c2N2CCN(C)CC2)OCO4)cc1C | 581 |
| Cc1ccc(CNC(=O)CN2CCN(C(=O)Nc3ccc(Cl)cc3)CC2=O)o1 | 725 |
| CCCCC(=O)Nc1ccc2nc(N3CCN(c4ccccc4Cl)CC3)cc(C(=O)O)c2c1 | 1010 |
| Cc1nn(C)cc1S(=O)(=O)Nc1ccc(C(F)(F)F)cc1 | 753 |
| O=C1c2ccccc2C(=O)c2c1ccc(C(=O)N1CCN(c3ccccn3)CC1)c2NCCO | 616 |
| O=C1N(CCNS(=O)(=O)c2cnc[nH]2)C(c2ccccc2)C12CCCCC2 (stereo not given) | 740 |
| CCC(=O)N1c2ccc(S(=O)(=O)CCC(=O)NCc3ccc(N(C)C)cc3)cc2CC1C (stereo not given) | 617 |
| COc1ccc(C2CCCN2C(=O)c2nn(C)cc2Cl)cc1 (stereo not given) | 770 |
| CCCNC(=O)C1CCN(c2ccc(SCC(=O)NCc3cccc(C(F)(F)F)c3)nn2)CC1 | 672 |
| Cc1nc2cccnc2n1C1CCN(C(=O)Nc2ccc(F)cc2F)CC1 | 619 |
| COc1ccc(-c2nc(-c3ccc4nnn(C(C)C)c4c3)no2)cc1 | 1140 |
| CC1(C)COc2ccc(NC(=O)c3c(F)cccc3Cl)cc2NC1=O | 810 |
| O=C(NCCn1nc(-c2cccs2)ccc1=O)c1ccc(-n2cccn2)nn1 | 685 |
| C=CCN(CC=C)c1nc(-c2ccc(Cl)cc2Cl)nc2ccccc12 | 933 |
| O=C1NCCCCCCN(C(=O)c2cccs2)[C@H]2CCCC[C@@H]12 | 838 |
| Cn1cc(S(=O)(=O)N2CCC(C(=O)NC3CC3)CC2)cc1C(=O)N1CCCC1 | 641 |
| Cc1cc(N2CCN(C)CC2)nc2ccc(NC(=S)NC3CCCC(C)C3C)cc12 (stereo not given) | 639 |
| CCCCN(CC)C(=O)c1cc(NC(=O)CC(C)C)cnc1N1CCNCC1 | 632 |
| c1ccc(-c2nnc(Cc3ccc4c(c3)OCO4)o2)cc1 | 894 |
| CC(=O)Nc1ccc(C(=O)NC2CCN(c3cc(-c4ccc(F)cc4)[nH]n3)C2)cc1 (stereo not given) | 641 |
| COc1ccc(N2CCN(C(=O)CCN3C(=O)C4C5C=CC(C5)C4C3=O)CC2)cc1 (stereo not given) | 650 |
| COCCNC(=O)N1CC(c2nc(-c3cccnc3)no2)C2(CCOCC2)C1 (stereo not given) | 596 |
| O=C(CCSc1ccccc1)Nc1cccc(-c2ccn[nH]2)c1 | 769 |

| SMILES | RP-LC retention time [s] |
| --- | --- |
| COc1ccc(CNC(=O)NCC2(CO)CC2)cc1OC | 590 |
| O=C(NC1CC1)c1ccc(OCC2CCCN2C(=O)c2ccccc2F)cc1 (stereo not given) | 751 |
| COc1cc(C(=O)Oc2ccc(/C=C/c3ccccn3)cc2)cc(OC)c1OC | 689 |
| CN(C)CCn1cc(C(=O)NCc2cccs2)ccc1=O | 578 |
| CC1CCN(S(=O)(=O)c2nn(C)cc2C(=O)NCC(C)c2ccccc2)CC1 (stereo not given) | 1030 |
| O=C1CCN(S(=O)(=O)c2ccccc2)CCCN(C(=O)C2(c3ccccc3)CC2)CCN1 | 758 |
| COc1ccc(NC(=O)C2CCCN(c3nccnc3Oc3ccccc3)C2)cc1Cl (stereo not given) | 1050 |
| CCn1cc(S(=O)(=O)N2CC(N(C)Cc3cccnc3)C2)cn1 | 565 |
| O=C(NC1CC1)c1ccc(OCC2CCCN(C(=O)c3ccc(F)cc3)C2)cc1 (stereo not given) | 803 |
| CCOc1cccc(C2CC(c3ccc(Br)cc3)=NC3(CCN(C)CC3)N2)c1O (stereo not given) | 649 |
| COCCn1ccc2nc(C)c(C(=O)NCCCc3ccco3)cc2c1=O | 665 |
| COc1ccc(-c2noc(C3CCCN3C(=O)c3ccc(N(C)C)cc3)n2)cc1OC (stereo not given) | 881 |
| COc1ccc(-c2c(C)noc2NC(C)=O)cc1S(=O)(=O)N1CCN(c2ncccn2)CC1 | 700 |
| Brc1cccc(-c2nc3cnccn3c2NC2CCCCC2)c1 | 1130 |
| Cc1ccccc1CC(=O)NC(C)C(=O)Nc1nc2ccccc2[nH]1 (stereo not given) | 654 |
| Cc1nc(-c2ccc(N3CCN(C(=O)c4cc5ccccc5[nH]4)CC3)nc2)sc1C | 924 |
| O=C(CCc1csc2nc(-c3ccc(Cl)cc3)cn12)Nc1nccs1 | 774 |
| CN(Cc1cc(Cl)ccc1F)C1CCc2nnc(C3CCOCC3)n2CC1 (stereo not given) | 592 |
| CCc1ccc(S(=O)(=O)N2C[C@@H]3C(=O)N(C(CC)c4cccs4)C(=O)[C@@H]3C2)cc1 (stereo not given in full) | 1070 |
| O=C(NCc1cccs1)c1nnc(-c2ccc(S(=O)(=O)N3CCCC3)cc2)o1 | 849 |
| O=C(CC1c2ncccc2C(=O)N1c1ccccc1)N1CCN(c2ccccn2)CC1 (stereo not given) | 683 |
| CCc1ccccc1S(=O)(=O)N1CCC(n2cnnc2C(C)C)CC1 | 784 |
| CC(C)CNC(=O)C1CCN(c2cncnc2N2CCOCC2)CC1 | 582 |

| SMILES | RP-LC retention time [s] |
| --- | --- |
| CSCc1csc(NC(=O)c2ccc(F)c(F)c2)n1 | 857 |
| O=C(c1cc2ccccc2[nH]1)N1CCOCC1 | 713 |
| CCOc1ccc(-c2nc(-c3cccc(-c4ccnn4CC)c3)no2)cc1OCC | 1300 |
| COc1ccc2[nH]cc(CCNC(=O)C3CCCCC3)c2c1 | 804 |
| COc1ccc(C(=O)Nc2ccc3nc(N4CCN(C5CCCCC5)CC4)cc(C(=O)O)c3c2)cc1 | 614 |
| CCCN1C(=O)c2c(C(=O)NCCCc3ccccc3)ncn2CC1(C)C(=O)NC1CCCC1 (stereo not given) | 867 |
| O=C(C1CCN(S(=O)(=O)c2ccc(-c3noc(C4CCCCC4)n3)cc2)CC1)N1CCCC1 | 836 |
| O=C(C1CCCN(c2ncnc3c2nc2n3CCCCC2)C1)N1CCCCC1 (stereo not given) | 713 |
| Cc1ccc(N2C(=O)CN(S(C)(=O)=O)CC2(C)C(=O)NCc2ccc(Cl)cc2)cc1C (stereo not given) | 874 |
| O=C1CCC2(CNC(=O)c3cnccn3)CCCC=C2N1 (stereo not given) | 623 |
| COCC1CN(S(=O)(=O)c2ccc(C)c(F)c2)CC12CCNCC2 (stereo not given) | 643 |
| COc1ccc(-c2noc(Cn3nc(-c4ccccc4)ccc3=O)n2)cc1OC | 900 |
| O=C(Nc1ccc2nccnc2c1)c1csc2c1CCCC2 | 804 |
| CCc1ccc(NC(=O)N2CCN(CCn3c(CC)nc4cccnc43)CC2)cc1 | 632 |
| COC(=O)c1cc(S(=O)(=O)N2CCCC2C(=O)Nc2cc(OC)cc(OC)c2)cn1C (stereo not given) | 867 |
| Cn1cnc(-c2cc3nccc(Oc4ccc(NC(=S)NC(=O)Cc5ccccc5)cc4F)c3s2)c1 | 862 |
| O=S(=O)(CCc1ccccc1)N1CCN(c2ccc3nncn3n2)CC1 | 664 |
| COc1ccc(CN2CCC(C3CCNC3)CC2)c(OC)c1 (stereo not given) | 548 |
| Cc1cc(C)nc(Nc2nc(C(=O)Nc3ccc(N4CCOCC4)cc3)cs2)n1 | 746 |
| O=C(c1cccc(F)c1)N1CCN(C(=O)c2nnn3c2COC(c2ccc(Cl)cc2)C3)CC1 (stereo not given) | 931 |
| COCCNC(=O)C(=O)Nc1ccc(Br)cc1 | 795 |
| COc1ccc(C(=O)NC2CCCCCC2)cc1CN1CC(=O)N2CCCC2C1=O (stereo not given) | 702 |
| O=C(CSCC(=O)c1ccccc1)c1ccccc1 | 880 |

| SMILES | RP-LC retention time [s] |
| --- | --- |
| c1ccc(-n2nnnc2SCCNCc2ccc3c(c2)OCCO3)cc1 | 634 |
| O=C(O)c1ccc(N2CCOCC2)c(NC(=O)c2ccc(Br)cc2)c1 | 828 |
| O=C(COc1ccccc1F)NCC(O)(c1ccccc1)C(F)(F)F (stereo not given) | 860 |
| Cc1cnc(C(=O)N[C@@H]2CCC[C@@H]2C(=O)NCc2ccc3c(c2)OCO3)cn1 | 662 |
| O=C(NCc1[nH]nc2ccccc12)C1CC(=O)N(c2cccc(Cl)c2)C1 (stereo not given) | 743 |
| O=C(Nc1ccc2c(c1)OCCO2)N1CCc2nc(-c3ccc(F)cc3)ncc2C1 | 898 |
| COc1ccc(CN2CC(C(=O)N3CCCN(c4cc(=O)n(C)c(=O)n4C)CC3)CC2=O)cc1 (stereo not given) | 629 |
| Cc1nc2cc(-c3noc(-c4ccccc4C(F)(F)F)n3)ccc2o1 | 1080 |
| CCOC(=O)C1CCN(C(=O)C2CCN(c3nnc(-c4ccccc4)o3)CC2)CC1 | 801 |
| CNC(=O)c1sc2nc(-c3cccc(F)c3)c(NCCOC)n2c1C | 734 |
| CS(=O)(=O)N1CCCC(C(=O)Nc2nc3cc4c(cc3s2)OCCO4)C1 (stereo not given) | 707 |
| CCOC1CCN(C(=O)NC(C)C)CC1 | 630 |
| COCCC(=O)NCCC1CCN(C(=O)Nc2ccc(F)cc2F)CC1 | 643 |
| COc1ccc(OC)c(NC(=O)Cn2c(N3CCCC3)nc(C)cc2=O)c1 | 654 |
| Cc1ccc(CN2CCN(C3CCN(S(=O)(=O)c4ccc(C)c(Cl)c4)CC3)C(=O)C2=O)cc1 | 990 |
| CCCNC(=O)CCc1nc2ccccc2n(CC(=O)NCc2ccc(F)cc2)c1=O | 750 |
| Cc1nn(CC(=O)NCCCN2CC(C)CC(C)C2)c(=O)c2c1sc1ccccc12 (stereo not given) | 691 |
| Cc1noc(C)c1S(=O)(=O)N1CCC(c2noc(COCC3CC3)n2)CC1 | 931 |
| OC[C@H]1O[C@@H](n2cnc3c(NC4CCCC4)ncnc32)C(O)[C@H]1O (stereo not given in full) | 630 |
| Cc1nnc2c(=O)n(CC(=O)NC3CCCCC3)c3cccnc3n12 | 668 |
| Cn1cc(C(=O)N2CCOCC2)cc(NC(=O)c2cccs2)c1=O | 596 |
